Literature values as cited in publication PMC10757118, “HS‐10352 in hormone receptor‐positive, HER2‐negative advanced breast cancer: A phase 1 dose‐escalation trial” (Cancer Medicine, 2023).

Tests used:
[1] = test system: PIK3CA‐mutant breast cancer; design: method as in PMID 29066505; conditions: PIK3CA‐mutant breast cancer patients ref 31
[2] = test system: PIK3CA‐mutant, HR‐positive, HER2‐negative breast cancer; design: method as in ref 33 = [33]; 33 Juric D , Kalinsky K , Oliveira M , et al. Abstract OT1‐08‐04: a first‐in‐human phase Ia dose escalation study of GDC‐0077, a p110a‐selective and mutant‐degrading PI3K inhibitor, in patients with P; conditions: single agent, HER2‐negative breast cancer patients ref 33
[3] = test system: ER‐positive, HER2‐negative breast cancer; design: method as in PMID 29401002; conditions: monotherapy, HER2‐negative breast cancer patients ref 19
[4] = test system: HR‐positive, HER2‐negative breast cancer with altered AKT pathways; design: method as in ref 35 = [35]; 35 Turner N , Oliveira M , Howell SJ , et al. Abstract GS3‐04: GS3‐04 Capivasertib and fulvestrant for patients with aromatase inhibitor‐resistant hormone receptor‐positive/human epidermal growth fact; conditions: CAPItello‐291, altered AKT pathways ref 35

NC1(C(=O)N[C@@H](CCO)c2ccc(Cl)cc2)CCN(c2ncnc3[nH]ccc23)CC1 [Capivasertib]
ORR [1]: 4%

C[C@H](Nc1ccc2c(c1)OCCn1cc(N3C(=O)OC[C@H]3C(F)F)nc1-2)C(N)=O [GDC‐0077]
confirmed ORR [2]: 20%

Cc1nc(NC(=O)N2CCC[C@H]2C(N)=O)sc1-c1ccnc(C(C)(C)C(F)(F)F)c1 [alpelisib]
ORR [3]: 4.3%

C[C@]12CC[C@@H]3c4ccc(O)cc4C[C@@H](CCCCCCCCC[S+]([O-])CCCC(F)(F)C(F)(F)F)[C@H]3[C@@H]1CC[C@@H]2O (some centres unmarked) [fulvestrant without capivasertib]
ORR [4]: 9.7% | median PFS [4]: 3.1 months
